12 molecules from patent US20250115597A1, “TYK2 INHIBITORS AND COMPOSITIONS AND METHODS THEREOF” (LYNK PHARMACEUTICALS CO. LTD., priority 2021, published 2025) can be followed below.

The target in data set [1] is T1, Ba/F3-FL-TYK2-P760L cells (Homo sapiens, UniProt P29597, P760L, cells depend on it).
T1 construct: BaF3-FL-T2P760L (nM)
In words: Anti-proliferative assay, Ba/F3-FL-TYK2-P760L cells (Cell-Titer Glo). Format: cell-based. To be noted: 72 h, read-out: BaF3-FL-T2P760L IC50. Summed up:
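Compound exposure ran 72 h at 37 °C in 5% CO2 across nine 3-fold concentrations from a 20 μM top dose, added 24 h after seeding 2000 cells/well.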

The nature of data set [2]: Microsomal metabolic stability assay. The class given is in vitro ADME. To be noted: pH 7.4, 0.5 mg/mL protein, 1 μM compound. The protocol: Microsomal Metabolic Stability Assay
Microsomes were pre-incubated with test compound or control compounds for 5 min at 37° C. in 100 mM potassium phosphate buffer, pH 7.4, 1.0 mM EDTA. The reaction was initiated by addition of 15 μL of the NADPH regenerating system to 30 μL of each incubation mixture per time point. The final incubation condition was composed of 0.5 mg/mL microsomal protein, 1 μM test article/positive control, 2 mM NADPH. The 0-minute samples were prepared by addition of a 30 μL aliquot of each incubation mixture to 135 μL quench reagent to precipitate proteins. And then a 15 μL aliquot of the NADPH regenerating system was added. At 5, 15, 30 and 45 minutes, the reaction will be stopped by the addition of cold acetonitrile solution containing internal standard. The samples taken at all time points were centrifuged at 5000×g for 15 minutes. 50 μL of supernatant are taken into 96-well assay plates pre-added with 50 μL ultrapure water, and then analyzed by LC/MS/MS.
Concentrations of test articles, control compounds in the samples were determined by using LC/MS/MS method. Plotting of the chromatograms and peak area integrations are carried out by Analyst (AB Sciex).
n the determination of the in vitro elimination constant (ke) of the control compounds, the analyte/internal standard peak area ratios will be converted to percentage remaining (% Remaining) with the following equation: […]
The slope was measured by the natural logarithm of the percentage of the residual compound and time, T1/2 was calculated according to the following formula.

[3] abbreviates: dog liver microsomes, read-out: Dog LM Clint.
[4] abbreviates: dog liver microsomes, read-out: Dog LM T½.
The mark [5] stands for this setting: human liver microsomes, read-out: Human LM Clint.
Where [6] appears, read: human liver microsomes, read-out: Human LM T½.
[7] abbreviates: rat liver microsomes, read-out: Rat LM Clint.
Where [8] appears, read: rat liver microsomes, read-out: Rat LM T½.

Read-outs that look alike come from different tables or passages of the source. A value given as a limit tells only on which side of the number the result lay.

T1 sequence (P29597 whole entry P760L): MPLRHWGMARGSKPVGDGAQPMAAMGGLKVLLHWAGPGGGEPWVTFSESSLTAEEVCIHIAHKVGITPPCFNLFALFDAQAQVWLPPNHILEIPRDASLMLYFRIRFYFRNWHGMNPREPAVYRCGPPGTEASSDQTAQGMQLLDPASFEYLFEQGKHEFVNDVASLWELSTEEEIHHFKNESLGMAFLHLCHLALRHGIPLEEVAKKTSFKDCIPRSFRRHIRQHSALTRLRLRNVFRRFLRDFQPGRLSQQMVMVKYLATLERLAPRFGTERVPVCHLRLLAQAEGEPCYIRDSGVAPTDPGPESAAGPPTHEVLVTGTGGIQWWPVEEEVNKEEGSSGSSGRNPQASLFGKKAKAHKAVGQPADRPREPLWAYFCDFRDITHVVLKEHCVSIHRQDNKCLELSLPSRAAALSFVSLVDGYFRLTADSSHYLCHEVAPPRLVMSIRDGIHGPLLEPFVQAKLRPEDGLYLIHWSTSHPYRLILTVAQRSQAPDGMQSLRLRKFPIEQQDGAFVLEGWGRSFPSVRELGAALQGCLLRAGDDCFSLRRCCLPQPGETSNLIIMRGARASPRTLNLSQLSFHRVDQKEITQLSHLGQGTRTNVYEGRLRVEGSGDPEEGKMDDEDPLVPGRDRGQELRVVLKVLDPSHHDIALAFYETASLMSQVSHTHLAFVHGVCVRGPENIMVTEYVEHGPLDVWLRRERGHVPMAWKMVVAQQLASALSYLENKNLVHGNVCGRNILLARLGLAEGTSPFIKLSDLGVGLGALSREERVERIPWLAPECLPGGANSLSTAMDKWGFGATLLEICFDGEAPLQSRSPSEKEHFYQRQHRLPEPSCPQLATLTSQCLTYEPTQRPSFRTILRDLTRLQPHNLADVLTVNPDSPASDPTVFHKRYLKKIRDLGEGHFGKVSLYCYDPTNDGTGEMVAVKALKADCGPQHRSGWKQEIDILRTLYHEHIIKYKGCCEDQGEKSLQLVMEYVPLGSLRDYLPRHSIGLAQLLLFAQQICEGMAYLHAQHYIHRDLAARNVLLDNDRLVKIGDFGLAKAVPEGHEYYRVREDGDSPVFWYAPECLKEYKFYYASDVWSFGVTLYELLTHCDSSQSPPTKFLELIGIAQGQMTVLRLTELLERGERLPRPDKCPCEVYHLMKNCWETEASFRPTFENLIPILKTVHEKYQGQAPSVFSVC

Regarding `[2H]C([2H])([2H])NC(=O)c1cnc(NC(=O)C2CC2)cc1Nc1csc2cnn(CC(F)(F)F)c(=O)c12` [Example 189, 6-(Cyclopropanecarboxamido)-N-(methyl-d3)-4-((4-oxo-5-(2,2,2-trifluoroethyl)-4,5-dihydrothieno[2,3-d]pyridazin-3-yl)amino)nicotinamide], the GI50 in data set [1] was found to be 0.247 µM. The microsomal CLint at 1 μM in data set [2] (setting [3]) was found to be 1.15 µL/min/mg; in data set [2] (setting [5]) it was 6.2 µL/min/mg; in data set [2] (setting [7]) it was 26.1 µL/min/mg. Also, the half-life at 1 μM in data set [2] (setting [4]) was 20.1 h; in data set [2] (setting [6]) it was 3.73 h; in data set [2] (setting [8]), 0.884 h.
With `[2H]C([2H])([2H])NC(=O)c1cnc(NC(=O)C2CC2)cc1Nc1csc2cnn(CC3CC3(F)F)c(=O)c12` (stereo not drawn) [Example 191, 6-(Cyclopropanecarboxamido)-4-((5-((2,2-difluorocyclopropyl)methyl)-4-oxo-4,5-dihydrothieno[2,3-d]pyridazin-3-yl)amino)-N-(methyl-d3)nicotinamide], the GI50 in data set [1] worked out at 1.27 µM. Also, the microsomal CLint at 1 μM in data set [2] (setting [3]) was less than 11.5 µL/min/mg; in data set [2] (setting [5]), less than 11.5 µL/min/mg; in data set [2] (setting [7]), 13.1 µL/min/mg. For the same molecule, the figures for the half-life at 1 μM in data set [2] (setting [4]), in data set [2] (setting [6]) and in data set [2] (setting [8]) were more than 2 h, more than 2 h and 1.77 h, respectively.
On to `[2H]C([2H])([2H])NC(=O)c1nnc2cc1Nc1cc(cc(-c3ccn(C)n3)c1OC)COCc1nc(ccc1F)N2` [Example 74, 18-Fluoro-10-methoxy-N-(methyl-d3)-11-(1-methyl-1H-pyrazol-3-yl)-15-oxa-2,4,5,8,21-pentaazatetracyclo[15.3.1.1^{3,7}.1^{9,13}]tricosa-1(20),3,5,7(23),9(22),10,12,17(21),18-nonaene-6-carboxamide], for which, in data set [1], the GI50 is 0.0935 µM. The microsomal CLint at 1 μM in data set [2] (setting [3]) worked out at 108 µL/min/mg; in data set [2] (setting [5]), 17.5 µL/min/mg; in data set [2] (setting [7]), 161 µL/min/mg. Moreover, the half-life at 1 μM in data set [2] (setting [4]) turned out to be 0.215 h; in data set [2] (setting [6]) it was 1.32 h; in data set [2] (setting [8]), 0.143 h.
As to `[2H]C([2H])([2H])NC(=O)c1cnc2nc1Nc1cc(cc(-c3ncn(C)n3)c1OC)COCc1cc(ccc1F)N2` [Example 76, 18-Fluoro-10-methoxy-N-(methyl-d3)-11-(1-methyl-1H-1,2,4-triazol-3-yl)-15-oxa-2,4,8,23-tetraazatetracyclo[15.3.1.1^{3,7}.1^{9,13}]tricosa-1(20),3,5,7(23),9(22),10,12,17(21),18-nonaene-6-carboxamide], the GI50 in data set [1] came out at 0.0587 µM. Moreover, the microsomal CLint at 1 μM in data set [2] (setting [3]) was 12.3 µL/min/mg; in data set [2] (setting [5]), 20.5 µL/min/mg; in data set [2] (setting [7]), 19.6 µL/min/mg. Moreover, the half-life at 1 μM in data set [2] (setting [4]) was found to be 1.88 h; in data set [2] (setting [6]) it was 1.12 h; in data set [2] (setting [8]), 1.18 h.
Regarding `[2H]C([2H])([2H])NC(=O)c1cnc(Nc2ccc(F)cn2)cc1Nc1cn(C)c2ccn(CC)c(=O)c12` [Example 99, 4-[(5-Ethyl-1-methyl-4-oxo-pyrrolo[3,2-c]pyridin-3-yl)amino]-6-[(5-fluoro-2-pyridyl)amino]-N-(methyl-d3)pyridine-3-carboxamide], in data set [1], the GI50 was found to be 0.0567 µM. Also, the results for the microsomal CLint at 1 μM in data set [2] (setting [3]), in data set [2] (setting [5]) and in data set [2] (setting [7]) were 33.1 µL/min/mg, 89.9 µL/min/mg and 181 µL/min/mg, respectively. Further, the half-life at 1 μM in data set [2] (setting [4]) amounted to 1.74 h; in data set [2] (setting [6]), 0.642 h; in data set [2] (setting [8]) it was 0.319 h.
Consider `[2H]C([2H])([2H])NC(=O)c1cnc2cc1Nc1cc(cc(-c3ncn(C)n3)c1OC)COCc1nc(ccc1C)N2` [Example 70, 10-Methoxy-N-(methyl-d3)-18-methyl-11-(1-methyl-1H-1,2,4-triazol-3-yl)-15-oxa-2,4,8,21-tetraazatetracyclo[15.3.1.1^{3,7}.1^{9,13}]tricosa-1(20),3,5,7(23),9(22),10,12,17(21),18-nonaene-6-carboxamide], for which the GI50 in data set [1] was 0.03 µM. Besides, the microsomal CLint at 1 μM in data set [2] (setting [3]) was 30.4 µL/min/mg; in data set [2] (setting [5]) it was 12.7 µL/min/mg; in data set [2] (setting [7]) it was 7.43 µL/min/mg. Besides, the half-life at 1 μM is 0.759 h in data set [2] (setting [4]), 1.83 h in data set [2] (setting [6]) and 3.11 h in data set [2] (setting [8]).
Take `[2H]C([2H])([2H])NC(=O)c1cnc(Nc2ccc(F)cn2)cc1Nc1ccc2cnn(CC)c2c1OC` [Example 42, 4-((1-Ethyl-7-methoxy-1H-indazol-6-yl)amino)-6-((5-fluoropyridin-2-yl)amino)-N-(methyl-d3)nicotinamide]: the GI50 in data set [1] is 0.0388 µM. For the same molecule, the microsomal CLint at 1 μM in data set [2] (setting [3]) came out at 117 µL/min/mg; in data set [2] (setting [5]), 11.9 µL/min/mg; in data set [2] (setting [7]), 43.9 µL/min/mg. Further, the values for the half-life at 1 μM in data set [2] (setting [4]), in data set [2] (setting [6]) and in data set [2] (setting [8]) were 0.198 h, 1.95 h and 0.526 h, respectively.
`[2H]C([2H])([2H])NC(=O)c1cnc(NC(=O)C2CC2)cc1Nc1cn(C)c2ncn(CC(F)(F)F)c(=O)c12` [Example 195, 6-(Cyclopropanecarboxamido)-N-(methyl-d3)-4-((7-methyl-4-oxo-3-(2,2,2-trifluoroethyl)-4,7-dihydro-3H-pyrrolo[2,3-d]pyrimidin-5-yl)amino)nicotinamide]: in data set [1], the GI50 was determined as 0.56 µM. Moreover, the microsomal CLint at 1 μM in data set [2] (setting [5]) was found to be 40 µL/min/mg; in data set [2] (setting [7]) it was 8.8 µL/min/mg. Moreover, the half-life at 1 μM was found to be 0.578 h in data set [2] (setting [6]) and 2.62 h in data set [2] (setting [8]).
For `[2H]C([2H])([2H])NC(=O)c1cnc(NC(=O)C2CC2)cc1Nc1csc2c(Cl)cn(C)c(=O)c12` [Example 172, 4-((7-Chloro-5-methyl-4-oxo-4,5-dihydrothieno[3,2-c]pyridin-3-yl)amino)-6-(cyclopropanecarboxamido)-N-(methyl-d3)nicotinamide], the GI50 in data set [1] was found to be 0.109 µM. Moreover, the microsomal CLint at 1 μM in data set [2] (setting [3]) came to 16.5 µL/min/mg; in data set [2] (setting [5]) it was 57.4 µL/min/mg; in data set [2] (setting [7]) it was 66.5 µL/min/mg. In addition, the figures for the half-life at 1 μM in data set [2] (setting [4]), in data set [2] (setting [6]) and in data set [2] (setting [8]) were 1.4 h, 0.402 h and 0.347 h, respectively.
With `[2H]C([2H])([2H])NC(=O)c1cnc(Nc2ccn(C)n2)cc1Nc1cn(C)c2c(C)cn(CC)c(=O)c12` [Example 198, 4-((5-Ethyl-1,7-dimethyl-4-oxo-4,5-dihydro-1H-pyrrolo[3,2-c]pyridin-3-yl)amino)-N-(methyl-d3)-6-((1-methyl-1H-pyrazol-3-yl)amino)nicotinamide], in data set [1], the GI50 was 0.585 µM. The microsomal CLint at 1 μM in data set [2] (setting [3]) is less than 11.5 µL/min/mg; in data set [2] (setting [5]), 26.4 µL/min/mg; in data set [2] (setting [7]), 53.8 µL/min/mg. The half-life at 1 μM in data set [2] (setting [4]) was more than 2 h; in data set [2] (setting [6]), 0.875 h; in data set [2] (setting [8]), 0.429 h.
On to `[2H]C([2H])([2H])NC(=O)c1cnc2cc1Nc1cc(cc(-c3ncn(C)n3)c1OC)COCc1cc(C(F)(F)F)cc(n1)N2` [Example 69, 10-Methoxy-N-(methyl-d3)-11-(1-methyl-1H-1,2,4-triazol-3-yl)-19-(trifluoromethyl)-15-oxa-2,4,8,21-tetraazatetracyclo[15.3.1.1^{3,7}.1^{9,13}]tricosa-1(21),3,5,7(23),9(22),10,12,17,19-nonaene-6-carboxamide], for which the GI50 in data set [1] was 0.0799 µM. In addition, the microsomal CLint at 1 μM in data set [2] (setting [3]) is 1.92 µL/min/mg; in data set [2] (setting [7]), 3.32 µL/min/mg. Moreover, the half-life at 1 μM in data set [2] (setting [4]) was 12 h; in data set [2] (setting [6]) it was more than 2 h; in data set [2] (setting [8]), 6.97 h.
Regarding `CNC(=O)c1cnc(NC(=O)C2CC2)cc1Nc1csc2ccn(C)c(=O)c12` [Example 16, 6-(Cyclopropanecarboxamido)-N-methyl-4-((5-methyl-4-oxo-4,5-dihydrothieno[3,2-c]pyridin-3-yl)amino)nicotinamide], the GI50 in data set [1] was 0.0893 µM. The microsomal CLint at 1 μM in data set [2] (setting [3]) came out at 8.46 µL/min/mg; in data set [2] (setting [5]) it was 27.8 µL/min/mg; in data set [2] (setting [7]), 126 µL/min/mg. For the same molecule, the values for the half-life at 1 μM in data set [2] (setting [4]), in data set [2] (setting [6]) and in data set [2] (setting [8]) were 2.73 h, 0.832 h and 0.184 h, respectively.
